Measurements: patent publication US11504439B2, “Radioactive compound for diagnosis of malignant melanoma and use thereof” (INDUSTRY FOUNDATION OF CHONNAM NATIONAL UNIVERSITY, priority 2017, dated 2022)
Values belong to the compound of their own block, whether it stands above or below them.

Legend:
melanoma = details: cited from earlier work; for detection rate for melanoma: melanoma patients
B16F10 cell line tumor [1] = experiment: Body distribution in small animal model of tumor transplantation; type: in vivo, nude mice
Protocol: (§1) In order to confirm the in vivo distribution of [^18F]DMFB, experiments were performed on nude mice whose tumor was grown to 100 to 150 mm^3 after about 10 days of injection of the B16F10 cell line into the right shoulder region. [^18F]DMFB was injected into the tail vein of the tumor-bearing mice at a dose of 7.4 MBq and sacrificed at 10, 30, 60, and 120 minutes, respectively to excise tumor tissue, blood and organs, and distribution of the radioactive compound was confirmed. The excised organs were measured by the gamma counter in each of the organs including blood, heart, lung, liver, spleen, stomach, intestine, kidney, pancreas, normal muscle, bone, brain, skin and eyes. The results were corrected by organ weight and expressed as a percentage of injections per gram of tissue (% ID/g).
as §1, with “In addition, in” for “In”, “[^18F]DMPY2 prepared in the example 3-2,” for “[^18F]DMFB,”, “tumors were” for “tumor was”, “[^18F]DMPY2” for “[^18F]DMFB”, “30,” for “30, 60,”, “60” for “120”

B16F10 melanoma cells = experiment: Melanoma cell uptake ratio experiment; type: cell-based, mouse
Protocol: B16F10 cell line, a mouse malignant melanoma cell line, was cultured in 5% CO2 in DMEM medium. Twenty-four hours prior to the experiment, cells were plated at 5×10^5 cells/well in 12-well plates and treated with 0.275 mM L-tyrosine-supplemented medium and non-supplemented medium, respectively. Then the cells were treated with 0.74 MBq of [18F]DMFB and incubated at 37° C. for 10, 30, and 60 min, respectively. After washing with PBS twice, the cells were treated with trypsin and the degree of [^18F]DMFB in the cell culture medium and cells in each time group was measured with a gamma counter, respectively. Three experiments were performed for each time group, and the results were expressed as percentage of the amount absorbed by cells versus the amount treated into the plate.

[2] = In vitro stability test in human serum; type: in vitro ADME; details: 1.0 ml human serum, 37° C., 2 hours, ITLC-sg / radio TLC
Protocol: For in vitro stability test, 0.74 MBq/100 μl of [^18F] DMFB was dissolved in 1.0 ml human serum and then evaluated at 37° C. for 2 hours. The structural stability was measured by ITLC-sg. ITLC-sg (1×10 cm) was developed using MC:MeOH=10:1. The results were confirmed by radio TLC.

Melanin binding assay = experiment: Melanin binding assay
Protocol: 0.74 MBq of [^18F] DMFB was reacted with 2 mg of melanin and 10 ml of distilled water for 10, 30, 60, and 120 minutes at 37° C. with stirring. Then, centrifugation was performed at 16,800 rpm for 10 minutes, and […] of the supernatant was measured with a gamma counter. Percentages (%) of [^18F]DMFB bound to melanin were calculated based on the mixture of [^18F]DMFB and distilled water alone without melanin.

B16F10 cell line tumor [3] = experiment: Micro PET imaging using xenograft tumor mouse model; type: in vivo, nude mouse; details: for signals in other organs (micro PET): 1 hour / 60 min after injection
Protocol: To confirm the in vivo dynamics of [^18F]DMFB, B16F10 cell line was injected into the right shoulder region, and about 10 days later, micro PET was performed using a nude mouse bearing tumor ranging in size of 100-150 mm^3. The nude mice were anesthetized with Isoflurane inhalation and then injected with 7.4 MBq of [^18F]DMFB into the tail vein. Static micro PET images were obtained at 10, 30, and 60 minutes after injection of the radioactive compound. Tumor uptake was determined and the images were reconstructed using 3D-ordered subset expectation maximization (3D-OSEM).
In addition, the in vivo dynamics of [^18F] DMPY2 was also analyzed by the same method as described above except that micro PET images were taken at 30 and 60 minutes after injection.

[4] = tested on: B16F10 metastatic foci (lung, liver, lymph node); experiment: In vivo distribution and PET imaging in lung/liver metastatic model mice; parameters: species or system C57BL/6 mice; details: 60 minutes from administering, lung metastasis model animal
Protocol: In order to examine the in vivo distribution and dynamics of [^18F]DMFB in lung/liver metastatic animal model, the present inventors divided C57BL/6 mice into two groups, one were injected with 1×10^5 cells of B16F10 cell line into the tail vein and the other were not injected with the tumor cells. After 14 days from the tumor cell inoculation, 7.4 MBq of [^18F]DMFB was injected into lung metastatic model mice and normal mice via tail vein, respectively and visualized at 60 min. Likewise, liver metastatic mice prepared by injecting 1×10^5 cells of B16F10 cell line into the tale vein were injected with 7.4 MBq of [^18F]DMFB into the tail vein. After 60 minutes of the administration, micro PET image was obtained. This liver metastatic model mice were produced among mice survived after a certain time after the induction of lung metastasis. Mice survived after the induction lung metastasis have metastasized to the lymph nodes and other organs after time elapse. […] After obtaining the images, the metastatic model mice and normal mice were sacrificed and lung and liver were excised and uptake ratio of the excised lung and liver were measured by a gamma counter. The results were corrected by organ weight and expressed as a percentage of injections per gram of tissue (% ID/g). […]

[5] = tested on: lung metastasis of melanoma; experiment: Comparison of [^18F]DMPY2 and [^18F]FDG, micro PET in lung metastasis model mice; type: in vivo; details: 1 hour after injection, 7.4 MBq
Protocol: (§2) The present inventors compared the imaging capabilities for melanoma and lung metastasis of the melanoma of [^18F]DMPY2 according to one embodiment of the present invention with the [^18F]FDG which has been used as a PET contrast agent for diagnosing cancer previously.
In addition, after lung metastasis model mice were prepared in the same manner as in Experimental Example 6, 7.4 MBq of [^18F]DMPY2 and [^18F]FDG were injected, respectively, and systemic micro PET images were obtained at 1 hour after the injection.

B16F10 xenograft tumor = experiment: Comparison of [^18F]DMPY2 and [^18F]FDG, micro PET in melanoma xenograft model mice; type: in vivo; details: 1 hour after injection, 7.4 MBq
Protocol: as §2
Particularly, melanoma xenograft model mice were prepared in the same manner as in Experimental Example 5, and then 7.4 MBq of [^18F]DMPY2 and [^18F]FDG were injected respectively, and systemic micro PET images were obtained at 1 hour after the injection.

[6] = with time after injection (10, 30, 60 minutes)

Structure (SMILES): [11CH3]SCC[C@H](N)C(=O)O [^11C-methionine, L-[methyl-^11C]methionien]
detection rate for melanoma (melanoma): extremely low

Structure (SMILES): N[C@@H](Cc1cc(O)c(O)cc1[18F])C(=O)O [^18F-DOPA, 6-^18F-Fluoro-L-dihydroxyphenylalanine]
detection rate for melanoma (melanoma): extremely low

Structure (SMILES): Cc1cn([C@H]2C[C@H]([18F])[C@@H](CO)O2)c(=O)[nH]c1=O [^18F-FLT, 3′-^18F-fluoro-3′-deoxy-L-thymidine]
detection rate for melanoma (melanoma): extremely low

radioactivity in internal organs (blood, heart, liver, lung, kidney) (B16F10 cell line tumor [1]; 10 minutes after injection, 7.4 MBq tail vein): strong radioactivity was detected
absorption ratio in stomach, liver, and kidney (B16F10 cell line tumor [1]; 1 hour after injection): relatively low
absorption ratio in tumor tissues (B16F10 cell line tumor [1]; 1 hour after injection): highest
radioactivity in the tumor tissue (B16F10 cell line tumor [1]; elapsed time of 2 hours): maintained
radioactivity in the visceral organs (B16F10 cell line tumor [1]; elapsed time of 2 hours): hardly detected
structural stability in human serum [2]: very stable even after 2 hours
binding rate to melanin (Melanin binding assay; 2 mg melanin, 37° C., 10 to 120 minutes): ≥ 85%
change of melanin binding rate over time (Melanin binding assay; after 120 minutes): did not significantly decrease
Structure (SMILES): CN(C)CCNC(=O)c1ccc([18F])cc1 [[^18F]DMFB, N-(2-(dimethylamino)ethyl)-4-[^18F]fluorobenzamide]
uptake in B16F10 melanoma cells (B16F10 melanoma cells; L-tyrosine not treated): hardly absorbed
uptake in B16F10 melanoma cells (B16F10 melanoma cells; medium supplemented with tyrosine (0.275 mM L-tyrosine), 10 to 60 minutes): significantly increased
signals in other organs (micro PET) (B16F10 cell line tumor [3]): maintaining signal in other organs
radiation in the tumor tissue (micro PET) (B16F10 cell line tumor [3]; [6]): maintained
radioactivity in the liver (micro PET) (B16F10 cell line tumor [3]; [6]): decreased with time
detection of lung metastatic cancer (micro PET) [4]: possible to detect a lung metastatic cancer

absorption ratio in tumor tissues (B16F10 cell line tumor [1]; 1 hour after injection): accumulated most in tumor tissue
signal in other organs such as kidney (B16F10 cell line tumor [1]; over time to 1 hour after injection): rapidly decreased
Structure (SMILES): CN(C)CCNC(=O)c1ccc([18F])cn1 [[^18F]DMPY2]
signal in the metastatic lung (micro PET) [5]: very strong signal
signals / noise in other organs (micro PET) [5]: little or no noise in other organs except bladder
signals in other organs (micro PET) (B16F10 cell line tumor [3]): very weak
signal in melanoma tumor tissue (micro PET) (B16F10 cell line tumor [3]; 1 hour after injection): clearly observed
signal in tumor tissue (micro PET) (B16F10 xenograft tumor): clear signal only in tumor tissue
signal to noise ratio (micro PET) (B16F10 xenograft tumor): very high

Structure (SMILES): O=C[C@H]([18F])[C@@H](O)[C@H](O)[C@H](O)CO [[^18F]FDG, F-18-fluoro-deoxyglucose, reference compound]
signals / noise in other organs (micro PET) [5]: stronger than the lungs
suitability for diagnosing lung metastasis of melanoma [5]: unsuitable
identification of metastatic foci with less than 1 cm in diameter (melanoma; lung, liver, and brain): failed to identify
background noise (micro PET) (B16F10 xenograft tumor): background noise was widespread throughout the whole body
signal in tumor tissue (micro PET) (B16F10 xenograft tumor): showed a signal in the tumor tissue
